Reference: patent EP1092427B1, “Use of a peptide avoiding skin intolerance reactions, especially in cosmetic compositions” (L'ORÉAL, priority 1999, dated 2007)
Non-standard residues stand in square brackets, D forms with d. Residues, ends and D or L forms follow the SMILES beside them.

How the values were obtained:
souris femelles Balb/C [1] = experiment: TNCB contact hypersensitivity in mice, peptide injected intravenously before sensitisation (ear swelling); format: in vivo
Description: (§1) L'étude est effectuée sur des souris femelles Balb/C âgées de 7 à 10 semaines.
On injecte une dose de 1,5 µg du peptide étudié (en solution dans du tampon PBS contenant 0,1 % de sérum de souris) dans une veine de la queue des souris 2 heures avant la réaction de sensibilisation.
(§2) La réaction de sensibilisation consiste à appliquer au pinceau 100 µl d'une solution à 0,15 % de TNCB dans un mélange acétone-huile d'olive (4:1) sur la peau rasée de l'abdomen des souris.
(§3) La réaction déclenchante est réalisée 7 jours après la réaction de sensibilisation. Cette réaction déclenchante consiste à appliquer sur les deux faces d'une oreille 10 microlitres d'une solution à 0,8 % de TNCB dans un véhicule constitué par le mélange acétone-huile d'olive déjà mentionné ci-dessus.
(§4) Sur l'autre oreille, on applique, pour comparaison, uniquement ce mélange d'acétone et d'huile d'olive.
(§5) On évalue l'intensité d'une éventuelle réaction d'hypersensibilité de contact par estimation de l'importance de l'oedème de l'oreille traitée par le TNCB, en comparaison avec l'oreille traitée par le seul véhicule. Pour cela, on mesure et compare l'épaisseur des oreilles à l'aide d'une vis micrométrique. Cette mesure est effectuée 24 heures après la réaction déclenchante.
On applique également le TNCB sur l'oreille de souris témoins n'ayant pas été préalablement sensibilisée (témoins négatifs). […]

souris femelles Balb/C [2] = experiment: TNCB contact hypersensitivity in mice after a second sensitisation (tolerance test, ear swelling); format: in vivo
Source text: 14 jours après la fin de l'expérience décrite en a) ci-dessus, on soumet les mêmes souris à une nouvelle réaction de sensibilisation sur la peau rasée du dos, comme décrit en a).
7 jours plus tard, on effectue le test de déclenchement par application du TNCB sur l'oreille, et 24 heures plus tard, on mesure le degré de gonflement de l'oreille.
Cette seconde expérience a pour but de faire une distinction entre une éventuelle immunosuppression temporaire aspécifique et une tolérance immunologique spécifique.

souris femelles Balb/C [3] = experiment: TNCB contact hypersensitivity in mice, peptide applied topically in a water-in-oil cream (ear swelling); format: in vivo; details: peptide in water-in-oil cream applied on the zone to be sensitised 2 h before sensitisation; measured 24 h after challenge; positive controls 7×10^-2 mm
Description: as §1, §2, §3, §4, §5
On opère comme en a) ci-dessus, mais le peptide, incorporé dans une crème de type eau-dans-l'huile, est appliqué sur la zone à sensibiliser 2 heures avant la sensibilisation.

patients volontaires = experiment: Topical effect in human volunteers with nickel contact allergy (nickel sulfate patch test); format: in vivo, homme; details: out of 14 nickel-sensitised persons; cream with 100 µM peptide under occlusive dressing on back skin 2 h before 5 % nickel sulfate patch; read 24 h later
Description: Cette étude a été effectuée sur des patients volontaires âgés de 18 à 65 ans, chez lesquels une allergie de contact au nickel était suspectée. Ces patients étaient exempts d'autres maladies cutanées, et les résultats de cette étude montrent qu'ils n'avaient pas d'allergie aux constituants de la crème utilisée comme véhicule.
Au jour 0, on applique avec un pansement occlusif, sur des zones de la peau du dos, d'une part une crème contenant 100 µM du peptide de formule II, et d'autre part la crème seule, sans peptide, utilisée comme placebo.
Deux heures plus tard, on applique sur les mêmes zones de la peau, et aussi sur une zone adjacente non prétraitée, des patchs imprégnés de vaseline contenant du sulfate de nickel à une concentration de 5 %.
24 heures plus tard, on examine les patients. Ceux qui ont développé une réaction d'hypersensibilité de contact sur la zone traitée par le placebo (et aussi sur la zone adjacente n'ayant reçu que l'application de sel de nickel), et qui sont donc des personnes qui étaient déjà sensibilisées au nickel, sont au nombre de 14. Sur ces 14 personnes, 7 n'ont développé aucune réaction d'hypersensibilité de contact sur la zone traitée par le peptide.

## CC(=O)N[C@H](CCCCN)C(=O)N1CCC[C@@H]1C(=O)N[C@@H](C(N)=O)C(C)C [peptide de formule II, Ac-D-Lys-D-Pro-D-Val-NH2] (Ac-[dK]-[dP]-[dV]-NH2)
Souris femelles Balb/C [1]; 1,5 µg peptide i.v. 2 h before TNCB sensitisation
  réaction d'hypersensibilité de contact (result in words): réduit fortement la réaction d'hypersensibilité de contact
Souris femelles Balb/C [1]; 1,5 µg peptide i.v. (tail vein) 2 h before sensitisation with 0,15 % TNCB, challenge day 7 with 0,8 % TNCB on ear, measured 24 h after challenge, ^-2 mm, negative controls about 1×10^-2 mm
  augmentation de l'épaisseur de l'oreille: ~2,5×10^-2 mm
Souris femelles Balb/C [2]; mice treated with peptide before the first sensitisation only
  hypersensibilité de contact après une seconde dose sensibilisante de TNCB (result in words): n'ont pas développé une hypersensibilité de contact
Souris femelles Balb/C [2]; same mice re-sensitised with TNCB on the back 14 days after first experiment, no new peptide dose, challenge 7 days later, measured 24 h later, positive controls about 14×10^-2 mm, negative controls about 3,5×10^-2 mm
  degré de gonflement de l'oreille: ~3,5×10^-2 mm
Souris femelles Balb/C [3]
  augmentation de l'épaisseur de l'oreille: 3×10^-2 mm
Patients volontaires
  personnes n'ayant développé aucune réaction d'hypersensibilité de contact sur la zone traitée par le peptide: 7
